Assay results taken from ChEMBL document CHEMBL4145472, “Novel donepezil-like N-benzylpyridinium salt derivatives as AChE inhibitors and their corresponding dihydropyridine "bio-oxidizable" prodrugs: Synthesis, biological evaluation and structure-activity relationship” (Eur J Med Chem, 2018).
pIC50: −log10 of the molar value.

Experiments:
[1] = Effective permeability of compound at 100 uM at pH 7.4 by PAMPA; format: ADME; conditions: read-out: Peff
[2] = Selectivity index, ratio of IC50 for equine serum BChE to IC50 for human erythrocyte AChE
[3] = target: T1, Acetylcholinesterase (Homo sapiens, UniProt P22303); experiment: Inhibition of human erythrocyte AChE using acetylthiocholine iodide as substrate preincubated for 5 mins followed by substrate addition measured every minute for 10 mins by Ellman's method
[4] = target: Cholinesterase (Equus caballus, UniProt P81908)
Description: Inhibition of equine serum BChE using butyrylthiocholine iodide as substrate preincubated for 5 mins followed by substrate addition measured every minute for 10 mins by Ellman's method

[5] = target: Cholinesterase (Equus caballus) (UniProt P81908); experiment: Inhibition of equine serum BChE using butyrylthiocholine iodide as substrate at 10 uM preincubated for 5 mins followed by substrate addition measured every minute for 10 mins by Ellman's method relative to control
[6] = target: T1, Acetylcholinesterase; experiment: Inhibition of human erythrocyte AChE using acetylthiocholine iodide as substrate at 10 uM preincubated for 5 mins followed by substrate addition measured every minute for 10 mins by Ellman's method relative to control
[7] = Half life in 2% riboflavine solution in PBS at 25 uM by HPLC-UV analysis; format: physicochemical
[8] = in vitro; conditions: PAMPA, pH 7.4

Cholinesterase, sequence (P81908 whole entry): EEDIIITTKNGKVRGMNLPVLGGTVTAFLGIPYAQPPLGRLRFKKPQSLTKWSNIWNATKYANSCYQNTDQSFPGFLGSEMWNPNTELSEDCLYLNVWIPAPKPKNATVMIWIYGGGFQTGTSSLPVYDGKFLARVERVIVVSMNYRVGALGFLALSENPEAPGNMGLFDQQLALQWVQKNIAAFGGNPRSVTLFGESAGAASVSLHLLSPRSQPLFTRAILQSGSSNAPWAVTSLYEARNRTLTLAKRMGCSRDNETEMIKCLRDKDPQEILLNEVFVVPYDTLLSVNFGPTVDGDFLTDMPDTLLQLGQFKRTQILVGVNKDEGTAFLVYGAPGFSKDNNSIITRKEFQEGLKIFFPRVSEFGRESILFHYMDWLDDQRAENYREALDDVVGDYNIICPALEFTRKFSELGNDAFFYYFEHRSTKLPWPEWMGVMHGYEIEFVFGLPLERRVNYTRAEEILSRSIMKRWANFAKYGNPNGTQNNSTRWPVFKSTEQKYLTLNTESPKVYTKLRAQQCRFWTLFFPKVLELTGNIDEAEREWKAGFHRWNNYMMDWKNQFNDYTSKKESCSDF
T1 sequence (P22303 whole entry): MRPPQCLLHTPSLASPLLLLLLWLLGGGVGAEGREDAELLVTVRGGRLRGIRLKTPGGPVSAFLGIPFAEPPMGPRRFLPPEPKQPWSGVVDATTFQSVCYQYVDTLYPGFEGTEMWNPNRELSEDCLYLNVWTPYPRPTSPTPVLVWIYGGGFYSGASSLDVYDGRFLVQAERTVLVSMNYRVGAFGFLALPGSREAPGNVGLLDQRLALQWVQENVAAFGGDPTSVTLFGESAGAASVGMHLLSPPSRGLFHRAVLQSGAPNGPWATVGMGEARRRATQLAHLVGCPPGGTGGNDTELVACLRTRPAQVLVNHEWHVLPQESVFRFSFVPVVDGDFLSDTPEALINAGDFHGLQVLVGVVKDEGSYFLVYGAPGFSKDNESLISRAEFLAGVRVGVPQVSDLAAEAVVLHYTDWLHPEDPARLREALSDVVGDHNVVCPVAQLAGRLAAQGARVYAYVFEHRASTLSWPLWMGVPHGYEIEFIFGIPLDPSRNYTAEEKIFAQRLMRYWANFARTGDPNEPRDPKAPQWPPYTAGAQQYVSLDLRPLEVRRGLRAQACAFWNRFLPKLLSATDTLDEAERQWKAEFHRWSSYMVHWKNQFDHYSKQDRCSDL
Cholinesterase (Equus caballus), sequence (P81908 whole entry): as the sequence (P81908 whole entry) above

## C[C@]12CCC(=O)C=C1CC[C@@H]1[C@@H]2C(=O)C[C@@]2(C)[C@H]1CC[C@]2(O)C(=O)CO [CORTISONE]
[1]
  Papp at 100 µM: 16.8 to 20.3 ×10⁻⁶ cm/s

## COc1ccc2c(c1)CCC(Cc1cc[n+](Cc3cccc(Cl)c3)cc1C(C)=O)C2=O (centres undefined)
[2]
  Ratio IC50: 6.9

## COc1ccc(C(=O)CCc2cc[n+](Cc3ccccc3C(F)(F)F)cc2C#N)cc1OC
[3]
  pIC50: 6.56

## COc1cc2c(cc1OC)C(=O)C(Cc1cc[n+](Cc3ccccc3)cc1Br)C2 (centres undefined)
[2]
  Ratio IC50: 4970

## COc1ccc(C(=O)CCc2cc[n+](Cc3ccc(Cl)cc3)cc2C#N)cc1OC
[4]
  pIC50: < 5.00
[3]
  pIC50: < 5.00

## COc1ccc2c(c1)CCC(Cc1cc[n+](Cc3cccc(C)c3)cc1Br)C2=O (centres undefined)
[2]
  Ratio IC50: 40

## COc1ccc2c(c1)CCC(CC1C=CN(Cc3ccccc3F)C=C1C(C)=O)C2=O (centres undefined)
[3]
  pIC50: < 5.00

## COc1cc2c(cc1OC)C(=O)C(CC1C=CN(Cc3cccc(Cl)c3)C=C1C(N)=O)C2 (centres undefined)
[5]
  inhibition: 6%
[6]
  inhibition: 29%

## COc1cc2c(cc1OC)C(=O)C(CC1C=CN(Cc3cccc(Cl)c3)C=C1C(N)=O)C2 (stereo in doubt; 23h-A)
[4]
  pIC50: 4.84
[7]; 2% riboflavine solution in PBS
  half-life at 25 µM: 24.6 min
[3]
  pIC50: 5.27

## COc1ccc(C(=O)CCc2cc[n+](Cc3cccc(Cl)c3)cc2C(N)=O)cc1OC
[4]
  pIC50: < 5.00
[3]
  pIC50: < 5.00

## COc1ccc2c(c1)CCC(CC1C=CN(Cc3cccc(C(F)(F)F)c3)C=C1C(C)=O)C2=O (centres undefined)
[4]
  pIC50: < 5.00
[3]
  pIC50: < 5.00

## COc1ccc2c(c1)CCC(CC1C=CN(Cc3ccc(C)cc3)C=C1C(C)=O)C2=O (centres undefined)
[4]
  pIC50: < 5.00
[3]
  pIC50: < 5.00

## COc1ccc(C(=O)CCc2cc[n+](Cc3cccc(Cl)c3)cc2C(C)=O)cc1OC
[4]
  pIC50: 5.50
[3]
  pIC50: 6.84
[2]
  Ratio IC50: 22.2

## COc1cc2c(cc1OC)C(=O)C(CC1C=CN(Cc3ccccc3C)C=C1C(C)=O)C2 (centres undefined)
[1]
  Papp at 100 µM: 19.1 ×10⁻⁶ cm/s

## COc1cc2c(cc1OC)C(=O)C(CC1C=CN(Cc3cccc(Cl)c3)C=C1C(N)=O)C2 (stereo in doubt; 23h-B)
[4]
  pIC50: 4.70
[7]; buffer, 25 µM
  t1/2: 17.7 min
[3]
  pIC50: 4.57

## COc1ccc(C(=O)CCc2cc[n+](Cc3cccc(F)c3)cc2C#N)cc1OC
[4]
  pIC50: < 5.00
[3]
  pIC50: 7.96

## COc1ccc2c(c1)CCC(Cc1cc[n+](Cc3ccccc3C)cc1C(C)=O)C2=O (centres undefined)
[2]
  Ratio IC50: 43.3

## COC(=O)c1ccccc1C[n+]1ccc(CC2Cc3cc(OC)c(OC)cc3C2=O)c(C(=O)Oc2c(Cl)cc(Cl)cc2Cl)c1 (centres undefined)
[4]
  pIC50: 6.43
[3]
  pIC50: 7.16
[2]
  Ratio IC50: 5.38

## COc1ccc(C(=O)CCc2cc[n+](Cc3cccc(Cl)c3)cc2C(=O)O)cc1OC
[3]
  pIC50: 7.74

## COc1cc2c(cc1OC)C(=O)C(Cc1cc[n+](Cc3cccc(Cl)c3)cc1C(=O)O)C2 (centres undefined)
[4]
  pIC50: < 5.00
[3]
  pIC50: < 5.00

## COC(=O)C1=CN(Cc2cccc(Cl)c2)C=CC1CCC(=O)c1ccc(OC)c(OC)c1 (centres undefined)
[4]
  pIC50: < 5.00
[3]
  pIC50: < 5.00

## CCC[n+]1ccc(CC2CCc3cc(OC)ccc3C2=O)c(C(C)=O)c1 (centres undefined)
[4]
  pIC50: < 5.00
[3]
  pIC50: < 5.00

## COC(=O)c1c[n+](Cc2cccc(Cl)c2)ccc1CCC(=O)c1ccc(OC)c(OC)c1
[4]
  pIC50: 5.69
[3]
  pIC50: 6.77

## COc1cc2c(cc1OC)C(=O)C(Cc1cc[n+](Cc3ccc(S(N)(=O)=O)cc3)cc1C(N)=O)C2 (centres undefined)
[4]
  pIC50: < 5.00
[3]
  pIC50: < 5.00

## COc1cc2c(cc1OC)C(=O)C(Cc1cc[n+](Cc3cccc(O)c3)cc1C(N)=O)C2 (centres undefined)
[4]
  pIC50: 5.27
[3]
  pIC50: < 5.00

## Cn1c(=O)c2[nH]cnc2n(C)c1=O.O [THEOPHYLLINE]
[8]
  Papp at 250 µM: 0.4 to 0.66 ×10⁻⁶ cm/s

## COc1cc2c(cc1OC)C(=O)C(CC1C=CN(Cc3ccccc3)C=C1C(C)=O)CC2 (centres undefined) [listing 1 of 2 here]
[5]
  inhibition: 45%
[6]
  inhibition: 36%

## COc1cc2c(cc1OC)C(=O)C(CCCc1cc[n+](Cc3cccc(Cl)c3)cc1C(N)=O)C2 (centres undefined)
[4]
  pIC50: 5.49
[3]
  pIC50: < 5.00

## COc1ccc(C(=O)CCCCc2cc[n+](Cc3cccc(Cl)c3)cc2C(N)=O)cc1OC
[4]
  pIC50: < 5.00
[3]
  pIC50: < 5.00

## COc1ccc2c(c1)CCC(Cc1cc[n+](Cc3ccccc3Cl)cc1C(C)=O)C2=O (centres undefined)
[3]
  pIC50: 7.53
[2]
  Ratio IC50: 8.6

## COc1ccc2c(c1)CCC(CC1C=CN(Cc3ccccc3Cl)C=C1C(C)=O)C2=O (centres undefined)
[3]
  pIC50: < 5.00
[1]
  Papp at 100 µM: 21.2 ×10⁻⁶ cm/s

## COc1cc2c(cc1OC)C(=O)C(Cc1cc[n+](Cc3cccc(C)n3)cc1C(N)=O)C2 (centres undefined)
[4]
  pIC50: < 5.00
[3]
  pIC50: 5.73

## COc1cc2c(cc1OC)C(=O)C(Cc1cc[n+](CCc3ccccc3)cc1C(N)=O)C2 (centres undefined)
[4]
  pIC50: < 5.00
[3]
  pIC50: 6.05

## COc1ccc2c(c1)CCC(Cc1cc[n+](Cc3ccccc3C)cc1C(N)=O)C2=O (centres undefined)
[4]
  pIC50: 5.04
[3]
  pIC50: 6.05
[2]
  Ratio IC50: 10.2

## COc1ccc2c(c1)CCC(Cc1cc[n+](Cc3cccc(C)c3)cc1C(C)=O)C2=O (centres undefined)
[2]
  Ratio IC50: 5.3

## COc1ccc2c(c1)CCC(CC1C=CN(Cc3ccccc3C)C=C1C(N)=O)C2=O (centres undefined)
[4]
  pIC50: < 5.00
[3]
  pIC50: < 5.00
[1]
  Papp at 100 µM: 18.8 ×10⁻⁶ cm/s

## COc1cc2c(cc1OC)C(=O)C(CC1C=CN(Cc3ccccc3)C=C1C(C)=O)CC2 (stereo in doubt; 24a-C)
[4]
  pIC50: 5.78
[3]
  pIC50: 6.76

## COc1ccc2c(c1)CCC(CC1C=CN(Cc3cccc(F)c3)C=C1C(C)=O)C2=O (centres undefined)
[3]
  pIC50: < 5.00

## COc1ccc2c(c1)CCC(Cc1cc[n+](Cc3ccccc3Cl)cc1C(N)=O)C2=O (centres undefined)
[4]
  pIC50: 5.58
[3]
  pIC50: 6.42
[2]
  Ratio IC50: 6.9

## COc1cc2c(cc1OC)C(=O)C(CC1C=CN(Cc3ccccc3)C=C1C(C)=O)CC2 (stereo in doubt; 24a-D)
[4]
  pIC50: 5.04
[3]
  pIC50: 6.03

## COc1ccc(C(=O)CCC2C=CN(Cc3cccc(Cl)c3)C=C2C(N)=O)cc1OC (centres undefined)
[4]
  pIC50: < 5.00
[3]
  pIC50: < 5.00
[1]
  Papp at 100 µM: 18.9 ×10⁻⁶ cm/s

## CNC(=O)c1c[n+](Cc2ccccc2C)ccc1CC1CCc2cc(OC)ccc2C1=O (centres undefined)
[4]
  pIC50: 5.60
[3]
  pIC50: < 5.00

## CC(=O)C1=CN(Cc2cccc(Cl)c2)C=CC1CC1Cc2cc(F)ccc2C1=O (centres undefined)
[4]
  pIC50: < 5.00
[3]
  pIC50: < 5.00

## CC(=O)c1c[n+](Cc2ccccc2C)ccc1CC1Cc2cc(OCC(F)(F)F)ccc2C1=O (centres undefined)
[4]
  pIC50: 5.38
[3]
  pIC50: 7.43
[2]
  Ratio IC50: 112

## COc1ccc2c(c1)CCC(CC1C=CN(Cc3cccc(C)c3)C=C1C(C)=O)C2=O (centres undefined)
[3]
  pIC50: < 5.00

## COc1cc2c(cc1O)C(=O)C(Cc1cc[n+](Cc3cccc(Cl)c3)cc1C(C)=O)C2 (centres undefined)
[4]
  pIC50: < 5.00
[3]
  pIC50: 8.57

## COc1ccc(C(=O)CCC2C=CN(Cc3cccc(Cl)c3)C=C2C(C)=O)cc1OC (centres undefined)
[4]
  pIC50: < 5.00
[3]
  pIC50: < 5.00
[1]
  Papp at 100 µM: 18.2 ×10⁻⁶ cm/s

## COc1ccc2c(c1)CCC(Cc1cc[n+](Cc3cccc(C(F)(F)F)c3)cc1C(C)=O)C2=O (centres undefined)
[2]
  Ratio IC50: 18

## CC(=O)c1c[n+](Cc2cccc(Cl)c2)ccc1CC1Cc2cc(O)ccc2C1=O (centres undefined)
[4]
  pIC50: < 5.00
[3]
  pIC50: 6.93

## COc1ccc2c(c1)CCC(Cc1cc[n+](Cc3ccccc3F)cc1C(C)=O)C2=O (centres undefined)
[2]
  Ratio IC50: 11

## COc1cc2c(cc1OC)C(=O)C(CC1C=CN(Cc3ccccc3)C=C1C(C)=O)CC2 (centres undefined) [listing 2 of 2 here]
[1]
  Papp at 100 µM: 20.4 ×10⁻⁶ cm/s

## CC(=O)c1c[n+](Cc2cccc(Cl)c2)ccc1CC1Cc2cc(F)ccc2C1=O (centres undefined)
[3]
  pIC50: < 5.00

## COc1ccc2c(c1)CCC(Cc1cc[n+](Cc3ccccc3C)cc1C(F)(F)F)C2=O (centres undefined)
[4]
  pIC50: 5.65
[3]
  pIC50: 6.62
[2]
  Ratio IC50: 9.2

## COc1ccc2c(c1)CCC(Cc1cc[n+](CC3CCCCC3)cc1C(C)=O)C2=O (centres undefined)
[4]
  pIC50: 6.47
[3]
  pIC50: 6.68
[2]
  Ratio IC50: 1.6

## COc1cc2c(cc1OC)C(=O)C(Cc1cc[n+](Cc3cccc(Cl)c3)cc1C(C)=O)CC2 (centres undefined)
[3]
  pIC50: 7.68

## COc1ccc2c(c1)CCC(CC1C=CN(Cc3ccc(Cl)cc3)C=C1C(C)=O)C2=O (centres undefined)
[4]
  pIC50: < 5.00
[3]
  pIC50: < 5.00

## COc1cc2c(cc1OC)C(=O)C(CC1C=CN(Cc3ccccc3)C=C1C(C)=O)CC2 (stereo in doubt; 24a-B)
[4]
  pIC50: 5.74
[3]
  pIC50: 6.54

## COc1ccc2c(c1)CCC(Cc1cc[n+](Cc3ccc(C)cc3)cc1C(C)=O)C2=O (centres undefined)
[2]
  Ratio IC50: 7.4

## COc1ccc2c(c1)CCC(Cc1cc[n+](Cc3cccc(F)c3)cc1C(C)=O)C2=O (centres undefined)
[2]
  Ratio IC50: 7.5

## COc1ccc(C(=O)CCc2cc[n+](Cc3cccc(Cl)c3)cc2C#N)cc1OC
[4]
  pIC50: 5.37
[3]
  pIC50: 7.65
[2]
  Ratio IC50: 191

## COc1ccc(C(=O)CCC2C=CN(Cc3cccc(Cl)c3)C=C2C#N)cc1OC (centres undefined)
[4]
  pIC50: < 5.00
[3]
  pIC50: 6.03
[1]
  Papp at 100 µM: 15.1 ×10⁻⁶ cm/s

## COc1ccc2c(c1)CCC(Cc1cc[n+](Cc3ccc(Cl)cc3)cc1C(C)=O)C2=O (centres undefined)
[2]
  Ratio IC50: 10.7

## COc1cc2c(cc1OC)C(=O)C(Cc1cc[n+](Cc3nc4ccccc4o3)cc1C(N)=O)C2 (centres undefined)
[4]
  pIC50: < 5.00
[3]
  pIC50: 5.03
